{"source": "patent US20140045805A1", "about": "“Fragrance Compositions and Other Compositions Which Contain Naturally Occurring Substances Found in Corals” (priority 2007, published 2014)", "key": {"[1]": {"tested_on": "healthy volunteers (men and women)", "test": "Behavioral effects by modified DABS-70 inventory after nasal exposure", "assay_type": "in vivo, human", "settings": "for Sensuality cluster mean: modified DABS-70, items scored 0-4", "method": "We assessed the resulting physiological responses and behavioral changes induced by nasal exposure to 12 ng pregna-5,20-dien-3β-ol in 76 volunteers (38 women and 38 men), age 18 to 46 (Table 1) using a placebo-controlled, single blind and crossover study design. The items of the modified DABS-70 were rearranged during consecutive administrations, in order to minimize the effect of learning.\nForty of the items on the standard DABS-70 questionnaire are descriptions of “ways people feel”, and subjects indicate whether they had experienced each emotion “never”, “rarely”, “sometimes”, “frequently”, or “always” in the last two weeks. The remaining 30 items on the standard DABS-70 questionnaire are personality characteristics for which subjects describe themselves as “not at all,” “a little bit,” “moderately” “quite a bit” or “extremely,” depending on the degree to which they feel each trait is typical of them. In the modified DABS-70 questionnaire, sixty-seven items were selected and assessed and during the testing the questions were randomized to minimize or prevent “learning” the questionnaire by the volunteers. This psychometric instrument was chosen because several items were of a sexual connotation and could be used to quantify the effects of pregna-5,20-dien-3β-ol on sexuality.\nSubjects who participated were asked, as a baseline, to fill out the modified DABS-70 as to their personality characteristics and feelings as they currently perceived them. Each item was quantified ranging from an individual's perception of “not at all” (0) to “extremely” (4). At the beginning of the questionnaire was a statement that they might feel differently after the blind and randomized exposure to the contents of a perfumery grade smelling strip positioned on the upper lip. The baseline electrophysiological measurements were performed after the questionnaire was completed, and again 5 minutes before the second randomized exposure (FIG. 3). Twenty minutes after the first randomized exposure to control or pregna-5,20-dien-3β-ol and again 20 minutes after the second randomized exposure to control or pregna-5,20-dien-3β-ol (in both instances, 5 minutes after the second and fourth set of electrophysiological measurements), the modified DABS-70 was administered again (FIG. 4). This task took approximately 10 minutes to complete, and the order of the questions of each consecutive modified DABS-70 administered was rearranged in order to minimize the effect of learning during prior administration of the test.\nActive substance (pregna-5,20-dien-3β-ol) and control were freshly prepared on 0.7 cm×10 cm perfumery grade smelling strips 24 hours before the experiment. A perfumery grade smelling strip was positioned on the upper lip of the subject for delivery of control or active substance to the nasal passages for a period of 20 minutes. Each breath carried vapors of pregna-5,20-dien-3β-ol or control (air) from the paper strip to the nasal passages.\nPerfumery grade smelling strips containing either pregna-5,20-dien-3β-ol or control were prepared as follows: 100 μl of stock solution containing 100 mg pregna-5,20-dien-3β-ol/10 mL ethanol (95%) was added to a clean paper strip. Ethanol was allowed to evaporate overnight in a clean fume hood, and 1 mg of dry crystals of pregna-5,20-dien-3β-ol remained embedded in the dried perfumery grade smelling strip. Control was a perfumery grade smelling strip prepared following the same procedure but the solution was devoid of active substance.\nThe following assumptions were used to calculate the quantity of pregna-5,20-dien-3β-ol delivered to the nasal passages during a study session: a) the quantity of pregna-5,20-dien-3β-ol arriving to the nasal passages with each breath is ≈40 pg (determined as described below); b) the average respiratory rate at rest in men and women is ≈15 breaths per minute; and c) the subject was exposed to pregna-5,20-dien-3β-ol for 20 min during the entire study session. […]"}, "[2]": {"tested_on": "peripheral nasal chemosensory receptors", "settings": "cited from earlier work; for Cross adaptation / fatigue of the receptors toward androstadienone: repeated stimulation, local electrical response of human vomeronasal epithelium, Monti-Bloch et al. 1994"}, "[3]": {"settings": "MALE, 12 ng nasal, modified DABS-70 item"}, "[4]": {"settings": "men (N = 38), 12 ng nasal over 20 min, modified DABS-70"}, "[5]": {"settings": "men and women, regardless of gender, 12 ng nasal, p<0.0001"}, "[6]": {"settings": "women (N = 38), 12 ng nasal over 20 min, modified DABS-70"}}, "note": "Where two headings read alike, the source gives them in different places.", "data": [{"compound": "C=C[C@H]1CC[C@H]2[C@@H]3CC=C4C[C@@H](O)CC[C@]4(C)[C@H]3CC[C@]12C", "note": "[pregna-5,20-dien-3β-ol, Pregna-5,20-dien-3β-ol]", "values": [{"measurement": "ENERGETIC item, ACTIVE MEAN", "setting": "[1]; FEMALE, 12 ng nasal, modified DABS-70 item", "value": 2.07}, {"measurement": "LOVING item, ACTIVE MEAN", "setting": "[1]; [3]", "value": 2.42}, {"measurement": "WARM item, ACTIVE MEAN", "setting": "[1]; [3]", "value": 2.25}, {"measurement": "Arousal/Excitement cluster mean", "setting": "[1]; [4]", "value": 2.006}, {"measurement": "Negativity cluster mean", "setting": "[1]; [4]", "value": 0.246}, {"measurement": "Personal Well-Being cluster mean", "setting": "[1]; [4]", "value": 2.607}, {"measurement": "Social Warmth/Friendliness cluster mean", "setting": "[1]; [4]", "value": 2.147}, {"measurement": "Sensuality cluster mean", "setting": "[1]; men (N = 38), 12 ng nasal over 20 min", "value": 1.286}, {"measurement": "Social Warmth and Friendliness cluster, overall response versus control", "setting": "[1]; men and women, regardless of gender, 12 ng nasal, p<0.00001", "value": "active>control"}, {"measurement": "Arousal and Excitement cluster, overall response versus control", "setting": "[1]; [5]", "value": "active>control"}, {"measurement": "Sensuality cluster, overall response versus control", "setting": "[1]; [5]", "value": "active>control"}, {"measurement": "Negativity cluster, response versus control", "setting": "[1]; men and women, 12 ng nasal", "value": "not associated with being exposed to active versus control treatment"}, {"measurement": "Arousal/Excitement cluster mean", "setting": "[1]; [6]", "value": 1.857}, {"measurement": "Negativity cluster mean", "setting": "[1]; [6]", "value": 0.238}, {"measurement": "Social Warmth/Friendliness cluster mean", "setting": "[1]; [6]", "value": 1.92}, {"measurement": "Sensuality cluster mean", "setting": "[1]; women (N = 38), 12 ng nasal over 20 min", "value": 1.446}, {"measurement": "Depolarization of the electrogram of peripheral nasal chemosensory receptors", "setting": "[2]; androstadienone 27 picograms, muricin aglycone 30 picograms, adapted from Monti-Bloch et al. (1994)", "value": "robust depolarization"}, {"measurement": "Cross adaptation / fatigue of the receptors toward androstadienone", "setting": "[2]; listed as Muricin aglycone", "value": "elicit cross adaptation"}, {"measurement": "Cross adaptation / fatigue of the receptors toward androstadienone", "setting": "[2]; listed as muricin aglycone", "value": "produces fatigue of the receptors"}]}]}
